Earlier results in US9980959B2, “Method and composition for treating rhinitis” (Biolipox AB, priority 2004, dated 2018).

Key:
[1] = nasal spray
[2] = mist administered to the lung with a nebulizer

O=C(O)COCCN1CCN(C(c2ccccc2)c2ccc(Cl)cc2)CC1 (stereo not shown) [cetirizine, [2-{4-[(4-chlorophenyl)-phenylmethyl]-1-piperazinyl}ethoxy]acetic acid]
Symptoms and nasal peak flow after an allergen challenge [1]: reduce symptoms and increase nasal peak flow | Protective effect in exercise-induced asthma [2]: good protective effect | Effect on symptoms in perennial allergic rhinitis (nasal spray 0.625, 1.25, 2.5 mg/mL three times a day for two weeks): Some effect | Incidence of side effects (nasal events) (nasal spray versus placebo): no difference in incidence between the placebo and the cetirizine-treated groups
